Test results published in ChEMBL document CHEMBL5465560, “Selectivity Literature for EUbOPEN Chemogenomic Library” (2024).
One block for each molecule: values may come before it.

Key:
[1] = biological target: T1, Megakaryocyte-associated tyrosine-protein kinase (Homo sapiens) (UniProt P42679); test: Selectivity interaction (Kinase panel (Z-LYTE Assay)) EUB0001632a MATK; details: at 10 µM
T1 sequence (whole entry): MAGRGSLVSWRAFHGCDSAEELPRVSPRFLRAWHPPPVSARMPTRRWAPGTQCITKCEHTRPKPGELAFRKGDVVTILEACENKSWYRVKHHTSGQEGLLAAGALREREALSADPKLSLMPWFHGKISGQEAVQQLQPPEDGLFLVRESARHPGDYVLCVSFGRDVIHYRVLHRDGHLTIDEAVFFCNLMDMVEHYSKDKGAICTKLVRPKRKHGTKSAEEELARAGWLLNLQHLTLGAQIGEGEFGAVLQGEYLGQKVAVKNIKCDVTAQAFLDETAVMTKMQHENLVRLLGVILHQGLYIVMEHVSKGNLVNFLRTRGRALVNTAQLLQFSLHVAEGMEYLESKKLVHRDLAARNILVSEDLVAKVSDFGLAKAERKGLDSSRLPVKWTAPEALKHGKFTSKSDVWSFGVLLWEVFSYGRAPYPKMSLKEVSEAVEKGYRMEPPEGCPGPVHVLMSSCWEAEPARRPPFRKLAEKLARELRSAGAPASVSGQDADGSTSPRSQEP

[2] = biological target: T2, Serine/threonine-protein kinase Nek3 (Homo sapiens) (UniProt P51956); test: Selectivity interaction (KinomeScan (DiscoverX)) EUB0000666a NEK3; details: at 10 µM
T2 sequence (whole entry): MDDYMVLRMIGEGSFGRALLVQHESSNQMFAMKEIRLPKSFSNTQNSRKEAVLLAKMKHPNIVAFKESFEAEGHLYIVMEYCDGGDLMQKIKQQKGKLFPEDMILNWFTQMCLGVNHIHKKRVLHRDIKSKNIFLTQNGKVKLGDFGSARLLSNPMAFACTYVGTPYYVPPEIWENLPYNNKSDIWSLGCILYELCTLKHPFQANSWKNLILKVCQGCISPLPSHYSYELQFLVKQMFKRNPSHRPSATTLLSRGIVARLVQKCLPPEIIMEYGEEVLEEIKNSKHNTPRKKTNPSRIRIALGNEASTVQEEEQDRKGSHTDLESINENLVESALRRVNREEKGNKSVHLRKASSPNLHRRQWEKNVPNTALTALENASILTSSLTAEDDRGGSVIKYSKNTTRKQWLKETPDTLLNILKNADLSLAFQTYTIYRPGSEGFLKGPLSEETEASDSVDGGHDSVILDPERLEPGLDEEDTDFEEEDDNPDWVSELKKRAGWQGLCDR

[3] = biological target: Polycomb protein SUZ12 (Homo sapiens) (UniProt Q15022); test: Selectivity interaction (Methyltransferase screen (Scintillation proximity assays)) EUB0000255b SUZ12
[4] = biological target: Histone-lysine N-methyltransferase SETDB1 (Homo sapiens) (UniProt Q15047); test: Selectivity interaction (Methyltransferase screen (Scintillation proximity assays)) EUB0000255b SETDB1
[5] = biological target: T3, Beta-adrenergic receptor kinase 1 (Homo sapiens) (UniProt P25098); test: Selectivity interaction (KinomeScan (DiscoverX)) EUB0001049a ADRBK1; details: at 1 µM
T3 sequence (whole entry): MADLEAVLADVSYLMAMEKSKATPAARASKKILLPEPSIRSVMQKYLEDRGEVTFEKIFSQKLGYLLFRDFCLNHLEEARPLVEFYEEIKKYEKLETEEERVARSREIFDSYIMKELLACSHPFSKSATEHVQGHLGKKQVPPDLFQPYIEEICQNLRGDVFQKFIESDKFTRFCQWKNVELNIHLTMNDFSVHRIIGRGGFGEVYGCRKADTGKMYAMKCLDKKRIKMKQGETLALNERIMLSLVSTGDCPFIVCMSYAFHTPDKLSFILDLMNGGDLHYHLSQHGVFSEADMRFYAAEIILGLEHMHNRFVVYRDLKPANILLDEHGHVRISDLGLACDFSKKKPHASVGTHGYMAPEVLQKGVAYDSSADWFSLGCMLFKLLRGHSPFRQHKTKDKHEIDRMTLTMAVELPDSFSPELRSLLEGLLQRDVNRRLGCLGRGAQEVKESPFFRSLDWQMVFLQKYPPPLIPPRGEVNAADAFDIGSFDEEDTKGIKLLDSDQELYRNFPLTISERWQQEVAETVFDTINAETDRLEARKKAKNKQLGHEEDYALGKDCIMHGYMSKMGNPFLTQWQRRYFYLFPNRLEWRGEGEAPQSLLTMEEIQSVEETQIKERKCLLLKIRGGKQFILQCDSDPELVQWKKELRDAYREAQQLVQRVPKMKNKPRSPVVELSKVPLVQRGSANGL

[6] = biological target: Calcium/calmodulin-dependent protein kinase type II subunit alpha (Homo sapiens, UniProt Q9UQM7); test: Selectivity interaction (KinomeScan (DiscoverX)) EUB0001049a CAMK2A; details: at 1 µM
[7] = biological target: T4, Tyrosine-protein kinase ITK/TSK (Homo sapiens) (UniProt Q08881); test: Selectivity interaction (KinomeScan (DiscoverX)) EUB0000655a ITK; details: at 10 µM
T4 sequence (whole entry): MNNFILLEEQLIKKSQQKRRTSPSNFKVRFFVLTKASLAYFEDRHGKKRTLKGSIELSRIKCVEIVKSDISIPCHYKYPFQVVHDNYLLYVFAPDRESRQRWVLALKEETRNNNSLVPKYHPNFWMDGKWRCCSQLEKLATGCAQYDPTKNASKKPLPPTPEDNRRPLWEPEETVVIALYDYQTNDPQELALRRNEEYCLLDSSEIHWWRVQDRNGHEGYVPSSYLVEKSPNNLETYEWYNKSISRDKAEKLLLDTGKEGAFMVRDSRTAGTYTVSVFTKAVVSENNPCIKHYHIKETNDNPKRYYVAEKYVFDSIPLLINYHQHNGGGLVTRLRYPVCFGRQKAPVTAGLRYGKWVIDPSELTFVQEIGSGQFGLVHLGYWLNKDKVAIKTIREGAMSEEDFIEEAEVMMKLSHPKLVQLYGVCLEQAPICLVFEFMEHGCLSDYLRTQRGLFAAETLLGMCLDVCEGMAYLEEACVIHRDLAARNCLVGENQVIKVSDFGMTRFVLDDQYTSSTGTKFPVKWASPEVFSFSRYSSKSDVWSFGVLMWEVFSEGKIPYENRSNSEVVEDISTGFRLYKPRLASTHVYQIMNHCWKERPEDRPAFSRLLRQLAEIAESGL

[8] = biological target: LIM domain kinase 2 (Homo sapiens) (UniProt P53671); details: at 10 µM
[9] = biological target: Proto-oncogene tyrosine-protein kinase Src (Homo sapiens, UniProt P12931); test: Selectivity interaction (KinomeScan (DiscoverX)) EUB0000618a SRC; details: at 10 µM
[10] = biological target: Tyrosine-protein kinase receptor UFO (Homo sapiens) (UniProt P30530); test: Selectivity interaction (KinomeScan (DiscoverX)) EUB0001619a AXL; details: at 1 µM
Chain of Tyrosine-protein kinase receptor UFO (Homo sapiens) (P30530 whole entry): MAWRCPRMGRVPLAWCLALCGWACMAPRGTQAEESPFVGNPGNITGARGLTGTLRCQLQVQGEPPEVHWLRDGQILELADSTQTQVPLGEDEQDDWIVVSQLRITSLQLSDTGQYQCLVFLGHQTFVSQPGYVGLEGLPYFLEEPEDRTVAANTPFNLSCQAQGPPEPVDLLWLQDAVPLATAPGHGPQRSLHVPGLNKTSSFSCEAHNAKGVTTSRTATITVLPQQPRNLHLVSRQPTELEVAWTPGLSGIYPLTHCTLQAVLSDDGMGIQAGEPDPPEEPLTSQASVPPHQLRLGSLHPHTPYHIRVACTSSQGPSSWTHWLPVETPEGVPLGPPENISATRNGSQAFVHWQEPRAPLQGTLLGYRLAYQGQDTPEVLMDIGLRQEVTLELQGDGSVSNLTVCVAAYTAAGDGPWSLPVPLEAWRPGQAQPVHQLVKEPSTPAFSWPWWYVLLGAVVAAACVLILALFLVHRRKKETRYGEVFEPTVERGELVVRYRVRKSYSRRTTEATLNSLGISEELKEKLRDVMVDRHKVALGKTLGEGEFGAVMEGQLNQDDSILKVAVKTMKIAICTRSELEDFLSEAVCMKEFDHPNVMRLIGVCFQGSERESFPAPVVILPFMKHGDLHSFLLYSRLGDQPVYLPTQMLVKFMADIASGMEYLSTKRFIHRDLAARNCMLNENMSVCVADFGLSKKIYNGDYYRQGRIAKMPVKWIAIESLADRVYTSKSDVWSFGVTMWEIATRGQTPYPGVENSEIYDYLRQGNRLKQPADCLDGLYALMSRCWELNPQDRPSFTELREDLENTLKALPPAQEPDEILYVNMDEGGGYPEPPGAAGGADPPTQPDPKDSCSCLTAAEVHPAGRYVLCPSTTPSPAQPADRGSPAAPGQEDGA

Chain of Polycomb protein SUZ12 (Homo sapiens) (Q15022 whole entry): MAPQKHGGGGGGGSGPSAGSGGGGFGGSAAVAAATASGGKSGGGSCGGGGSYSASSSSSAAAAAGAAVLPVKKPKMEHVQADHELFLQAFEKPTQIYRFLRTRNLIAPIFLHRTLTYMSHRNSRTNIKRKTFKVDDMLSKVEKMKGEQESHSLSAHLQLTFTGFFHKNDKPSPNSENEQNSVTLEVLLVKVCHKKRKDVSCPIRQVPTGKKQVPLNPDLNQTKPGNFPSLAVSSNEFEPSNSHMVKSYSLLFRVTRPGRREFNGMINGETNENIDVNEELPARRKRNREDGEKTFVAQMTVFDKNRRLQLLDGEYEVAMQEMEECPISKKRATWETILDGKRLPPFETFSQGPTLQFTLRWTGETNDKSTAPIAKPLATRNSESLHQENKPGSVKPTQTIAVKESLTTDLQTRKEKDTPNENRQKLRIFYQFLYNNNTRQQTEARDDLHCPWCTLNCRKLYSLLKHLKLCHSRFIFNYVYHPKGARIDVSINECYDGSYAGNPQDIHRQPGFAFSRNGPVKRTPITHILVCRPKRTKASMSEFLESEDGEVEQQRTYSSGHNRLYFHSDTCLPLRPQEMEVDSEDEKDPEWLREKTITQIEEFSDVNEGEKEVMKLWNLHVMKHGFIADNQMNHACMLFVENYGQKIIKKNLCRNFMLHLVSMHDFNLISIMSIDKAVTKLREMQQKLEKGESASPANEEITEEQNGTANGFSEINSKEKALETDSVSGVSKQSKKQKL
Chain of LIM domain kinase 2 (Homo sapiens) (P53671 whole entry, looked up, the tested form may be a part): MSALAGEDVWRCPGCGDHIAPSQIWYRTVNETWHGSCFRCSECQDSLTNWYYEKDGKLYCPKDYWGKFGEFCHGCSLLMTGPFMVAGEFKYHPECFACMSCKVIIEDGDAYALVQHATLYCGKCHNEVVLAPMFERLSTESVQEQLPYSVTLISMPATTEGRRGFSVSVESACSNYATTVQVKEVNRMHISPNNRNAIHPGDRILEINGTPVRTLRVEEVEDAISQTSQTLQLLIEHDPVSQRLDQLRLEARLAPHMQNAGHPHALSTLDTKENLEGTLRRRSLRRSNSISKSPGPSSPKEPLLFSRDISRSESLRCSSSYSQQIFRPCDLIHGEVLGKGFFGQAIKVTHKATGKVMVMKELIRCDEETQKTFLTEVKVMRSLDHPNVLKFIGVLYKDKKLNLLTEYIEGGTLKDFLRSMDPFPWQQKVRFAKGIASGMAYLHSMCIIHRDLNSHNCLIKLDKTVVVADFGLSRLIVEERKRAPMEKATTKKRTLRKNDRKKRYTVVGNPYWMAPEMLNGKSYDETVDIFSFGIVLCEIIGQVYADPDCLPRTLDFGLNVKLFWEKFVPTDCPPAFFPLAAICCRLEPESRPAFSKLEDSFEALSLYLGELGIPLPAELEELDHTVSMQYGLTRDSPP
Chain of Proto-oncogene tyrosine-protein kinase Src (P12931 2-536 limits assumed): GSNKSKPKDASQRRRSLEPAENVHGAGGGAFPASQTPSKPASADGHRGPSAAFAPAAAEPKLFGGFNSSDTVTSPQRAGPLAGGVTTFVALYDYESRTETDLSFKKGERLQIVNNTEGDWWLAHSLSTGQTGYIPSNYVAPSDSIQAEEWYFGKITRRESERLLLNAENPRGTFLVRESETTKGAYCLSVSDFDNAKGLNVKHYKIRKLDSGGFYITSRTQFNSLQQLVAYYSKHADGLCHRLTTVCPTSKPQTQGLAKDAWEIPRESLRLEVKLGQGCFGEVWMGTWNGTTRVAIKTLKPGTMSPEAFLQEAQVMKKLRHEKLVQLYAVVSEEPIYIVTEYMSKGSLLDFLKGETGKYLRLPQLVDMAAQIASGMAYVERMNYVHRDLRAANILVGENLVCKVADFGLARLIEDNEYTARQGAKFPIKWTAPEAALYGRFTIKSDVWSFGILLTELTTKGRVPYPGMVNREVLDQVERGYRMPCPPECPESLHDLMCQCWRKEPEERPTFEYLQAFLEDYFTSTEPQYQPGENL
Chain of Calcium/calmodulin-dependent protein kinase type II subunit alpha (Q9UQM7 whole entry): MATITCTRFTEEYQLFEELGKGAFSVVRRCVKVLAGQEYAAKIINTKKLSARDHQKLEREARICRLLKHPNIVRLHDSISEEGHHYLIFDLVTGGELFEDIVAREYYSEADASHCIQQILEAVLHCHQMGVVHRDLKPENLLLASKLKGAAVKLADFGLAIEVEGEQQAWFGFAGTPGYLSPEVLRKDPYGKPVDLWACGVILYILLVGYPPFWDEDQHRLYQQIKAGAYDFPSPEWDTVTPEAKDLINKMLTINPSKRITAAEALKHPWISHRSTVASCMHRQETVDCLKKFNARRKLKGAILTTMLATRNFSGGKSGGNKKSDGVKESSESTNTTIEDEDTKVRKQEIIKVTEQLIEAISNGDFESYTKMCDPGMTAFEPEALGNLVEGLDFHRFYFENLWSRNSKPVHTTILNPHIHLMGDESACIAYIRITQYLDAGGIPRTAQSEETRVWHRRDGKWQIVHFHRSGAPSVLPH

% of control [1]: 7.05%
SMILES: Cn1cc(-n2cnc3c(NCc4nc5cc(Cl)c(Cl)cc5[nH]4)nc(N4CCOCC4)nc32)cn1

SMILES: O=C(NOC[C@H](O)CO)c1ccc(F)c(F)c1Nc1ccc(I)cc1F
% of control [2]: 100%

SMILES: COCCN1CCC(c2cc(CN(C)C(=O)c3cccc(Oc4ccccc4)c3)ccn2)CC1
% activity ([3]; at 1 µM): > 95%
% activity ([3]; at 10 µM): > 90%
% activity ([4]; at 1 µM): > 95%
% activity ([4]; at 10 µM): > 90%

SMILES: COc1cc(Nc2nc(C)cc(-c3cnn4nc(OC)ccc34)n2)cc(C(F)(F)F)c1
% of control [5]: 100%
% of control [6]: 85%

SMILES: CN(C)CCOc1ccc(-c2nc(-c3ccncc3)c(-c3ccc4c(c3)CC/C4=N\O)[nH]2)cc1
% of control [7]: 98%

SMILES: Cc1cc([C@@H](C)Nc2ccccc2C(=O)O)c2nc(N3CCOCC3)cc(=O)n2c1 [AZD-6482]
% of control [8]: 100%

SMILES: O[C@H]1CC[C@H](Nc2ncc3nc(Nc4c(F)cc(F)cc4F)n([C@H]4CCOC4)c3n2)CC1
% of control [9]: 72%

SMILES: N#Cc1cccc(-c2c[nH]c3ncnc(N4CCOCC4)c23)c1
% of control [10]: 99%
